Our source for the IC50 values is patent US10065941B2, “Aminotriazine derivative and pharmaceutical composition comprising the same” (Shionogi & Co., Ltd., priority 2013, dated 2018).

This test has as its target human P2X3 receptor (Homo sapiens (Human), UniProt P56373). Put plainly: Evaluation of human P2X3 receptor inhibitory activity (Test Example 1). The settings on record: C6BU-1 cell transfected with human P2X3 receptor gene, FLIPR 384. In kind it is cell-based. The procedure: Stably expressing cell line (C6BU-1 cell transfected with human P2X3 receptor gene (GenBank accession number Y07683) was used. The cells were seeded in a 384-well PDL-coated microtiter plate at a concentration of 3000 cells/well and cultured in the medium (8.3% fetal bovine serum, 8.3% horse serum, and 1% antibiotic and antifungal in DMEM) for one day at 37° C. under 5% carbon dioxide atmosphere. The medium was replaced with 4 μM Fluo-3-AM solution (20 mM HEPES, 137 mM NaCl, 2.7 mM KCl, 0.9 mM MgCl2, 5.0 mM CaCl2, 5.6 mM D-glucose, 2.5 mM probenecid, 0.5% BSA, and 0.04% Pluronic F-127, pH 7.5) and incubated at 37° C. under 5% dioxide carbon atmosphere for one hour. The plate was washed with washing buffer (20 mM HEPES, 137 mM NaCl, 2.7 mM KCl, 0.9 mM MgCl2, 5.0 mM CaCl2, 5.6 mM D-glucose, 2.5 mM probenecid, pH7.5), and each well was added with 20 μL of the washing buffer. The plate was placed in High-Throughput Screening System FLIPR 384 (Molecular Device Co.). Measurement of fluorescence intensity by FLIPR 384 was started, and 20 μL of DMSO solutions containing different concentrations of the test compound as prepared by dilution with dilution buffer (20 mM HEPES, 137 mM NaCl, 2.7 mM KCl, 0.9 mM MgCl2, 5.0 mM CaCl2, 5.6 mM D-glucose, 2.5 mM probenecid, 0.1% Pluronic F-127, pH7.5) were dispensed to each well through the built-in automatic dispenser. Five minutes after, 150 nM ATP solution (25 μL) prepared by dilution with the dilution buffer was dispensed through the built-in automatic dispenser, and the measurement of fluorescence intensity was continued for 4 min. For each well, the specific maximum fluorescence intensity was calculated as the ratio of the maximum fluorescence intensity after addition of the ATP solution to the fluorescence intensity at the starting of the measurement. […] The specific maximum fluorescence intensity and IC50 were calculated using Spotfire (Science & Technology Systems, Inc.)

Chain of human P2X3 receptor (P56373 whole entry): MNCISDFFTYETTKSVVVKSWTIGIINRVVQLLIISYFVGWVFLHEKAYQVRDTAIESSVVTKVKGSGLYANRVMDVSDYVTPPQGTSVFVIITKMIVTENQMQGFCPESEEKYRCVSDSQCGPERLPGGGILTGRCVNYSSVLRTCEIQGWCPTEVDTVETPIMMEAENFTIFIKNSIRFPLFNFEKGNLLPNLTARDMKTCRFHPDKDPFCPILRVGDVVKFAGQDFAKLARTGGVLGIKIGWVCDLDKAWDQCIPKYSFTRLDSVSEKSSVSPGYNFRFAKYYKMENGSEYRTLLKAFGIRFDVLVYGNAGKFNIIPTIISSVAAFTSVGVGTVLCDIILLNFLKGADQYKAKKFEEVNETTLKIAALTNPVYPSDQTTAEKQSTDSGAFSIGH

The compound `COc1ccc(Oc2ccc(/N=c3\[nH]c(=O)n(C[C@H](C)C(=O)O)c(=O)n3Cc3ccc(Cl)cc3)cc2)nc1` [Compound I-079] returned an IC50 of 5 nM. The result for `COC(=O)C(C)(C)Cn1c(=O)[nH]/c(=N\c2ccc(Oc3cccnn3)cc2)n(Cc2ccc(Cl)cc2)c1=O` [Compound R-148] reads 5 nM; that for `CCc1[nH]c2ccc(/N=c3\[nH]c(=O)n([C@@H](C)[C@@H](C)C(=O)OC)c(=O)n3Cc3ccc(Cl)cc3)cc2c1C` [Compound R-127], 90 nM; that for `COC(=O)[C@H](C)[C@H](C)n1c(=O)[nH]/c(=N\c2ccc(Oc3ccc(C)cn3)cc2)n(Cc2ccc(Cl)cc2)c1=O` [Compound I-073], 15 nM. The value for `Cc1cccnc1Oc1ccc(/N=c2\[nH]c(=O)n(CC(C)(C)C(=O)O)c(=O)n2Cc2ccc(Cl)cc2)cc1` [Compound I-078] was 19 nM; that for `COc1cc(Oc2ccc(/N=c3\[nH]c(=O)n(CC(C)(C)C(=O)O)c(=O)n3Cc3ccc(Cl)cc3)cc2)cc(F)n1` [Compound R-071] was 6 nM.

In turn, `COc1ccc(Oc2ccc(/N=c3\[nH]c(=O)n([C@@H](C)[C@@H](C)C(=O)O)c(=O)n3Cc3ccc(Cl)cc3)cc2)nc1` [Compound I-094] gave an IC50 of 11 nM. Regarding `Cc1ccc(Cn2c(=O)n(CCCC(=O)O)c(=O)[nH]/c2=N\c2ccc(Oc3ncccc3F)cc2)cc1` [Compound R-277], half-maximal inhibition (IC50) was put at 14 nM. The value for `COC(=O)C(C)(C)Cn1c(=O)[nH]/c(=N\c2ccc(Oc3cc(F)nc(F)c3)cc2)n(Cc2ccc(Cl)cc2)c1=O` [Compound R-041] was 11 nM; that for `COC(=O)[C@@H](C)Cn1c(=O)[nH]/c(=N\c2ccc(Oc3ccc(C(F)(F)F)cn3)cc2)n(Cc2ccc(C)cc2)c1=O` [Compound I-034] was 9 nM; that for `COC(=O)C[C@@H](C)n1c(=O)[nH]/c(=N\c2ccc(Oc3ccc(F)cn3)cc2)n(Cc2ccc(C)cc2)c1=O` [Compound I-190] was 5 nM. The result for `Cc1ccc(Cn2c(=O)n(CC(C)(C)C(=O)O)c(=O)[nH]/c2=N\c2ccc(Oc3ncc(C)s3)cc2)cc1` [Compound R-219] reads 11 nM; that for `Cc1ccc(Cn2c(=O)n(CC(C)(C)C(=O)O)c(=O)[nH]/c2=N\c2ccc(Oc3ccc(Cl)cn3)cc2)cc1` [Compound I-101], 5 nM. The value for `Cc1ccc(Cn2c(=O)n(CC(C)(C)C(=O)O)c(=O)[nH]/c2=N\c2ccc(Oc3ccc(OC(F)F)cn3)cc2)cc1` [Compound I-136] was 7 nM; that for `COC(=O)[C@@H](C)Cn1c(=O)[nH]/c(=N\c2ccc(Oc3ccc(F)cn3)cc2)n(CC2CC3(CCC3)C2)c1=O` [Compound I-269] was 4 nM; that for `COC(=O)[C@@H](C)Cn1c(=O)[nH]/c(=N\c2ccc(Oc3ccccn3)c(Cl)c2)n(Cc2ccc(Cl)cc2)c1=O` [Compound I-252] was 14 nM. For `CC(C)(Cn1c(=O)[nH]/c(=N\c2ccc(N3CCCCC3)c(F)c2)n(Cc2ccc(Cl)cc2)c1=O)C(=O)O` [Compound R-147], inhibition was half-maximal at 51 nM (IC50). The result for `COC(=O)C[C@@H](C)n1c(=O)[nH]/c(=N\c2ccc(Oc3ncccc3F)cc2)n(Cc2ccc(Cl)cc2)c1=O` [Compound I-161] reads 10 nM. The result for `COC(=O)C(C)(C)Cn1c(=O)[nH]/c(=N\c2ccc(Oc3ncns3)cc2)n(Cc2ccc(Cl)cc2)c1=O` [Compound R-136] reads 6 nM; that for `CO[C@@H](Cn1c(=O)[nH]/c(=N\c2ccc(Oc3ccccn3)cc2)n(Cc2ccc(Cl)cc2)c1=O)C(=O)O` [Compound I-146], 5 nM; that for `Cc1ccc(Cn2c(=O)n(C[C@H](C)C(=O)O)c(=O)[nH]/c2=N\c2ccc(Oc3ccc(C(F)(F)F)cn3)cc2)cc1` [Compound I-038], 5 nM. `Cc1ccc(Cn2c(=O)n(CC(C)(C)C(=O)O)c(=O)[nH]/c2=N\c2ccc(Oc3cccc(Cl)n3)cc2)cc1` [Compound I-128] showed an IC50 of 8 nM. The result for `COc1ccc(Oc2ccc(/N=c3\[nH]c(=O)n(CC(C)(C)C(=O)O)c(=O)n3Cc3ccc(Cl)cc3)cc2)nc1` [Compound I-093] reads 16 nM; that for `Cc1cc(/N=c2\[nH]c(=O)n(CC(C)(C)C(=O)O)c(=O)n2Cc2ccc(Cl)cc2)ccc1Oc1cnccn1` [Compound R-131], 9 nM; that for `COC(=O)[C@@H](C)Cn1c(=O)[nH]/c(=N\c2ccc(Oc3cccc(CO)n3)cc2)n(Cc2ccc(C)cc2)c1=O` [Compound I-246], 14 nM.

Regarding `CC(C)(Cn1c(=O)[nH]/c(=N\c2ccc(Oc3cncc(F)c3)c(F)c2)n(Cc2ccc(Cl)cc2)c1=O)C(=O)O` [Compound R-121], the IC50 worked out at 5 nM. The value for `CCOC(=O)C[C@H](O)Cn1c(=O)[nH]/c(=N\c2ccc3oc(CC)c(C)c3c2)n(Cc2ccc(Cl)cc2)c1=O` [Compound R-172] was 33 nM; that for `C[C@@H](Cn1c(=O)[nH]/c(=N\c2ccc(Oc3ncccn3)cc2)n(Cc2ccc(Cl)cc2)c1=O)C(=O)O` [Compound R-078] was 10 nM. On to `O=c1[nH]/c(=N\c2ccc(Oc3cccc(F)n3)cc2)n(Cc2ccc(Cl)cc2)c(=O)n1CC1(CO)COC1` [Compound I-042], for which 4 nM corresponded to half-maximal inhibition (IC50). The value for `COC(=O)[C@H](Cn1c(=O)[nH]/c(=N\c2ccc(Oc3ccc(F)cn3)cc2)n(Cc2ccc(Cl)cc2)c1=O)OC` [Compound I-121] was 6 nM; that for `N#Cc1ccc(Oc2ccc(/N=c3\[nH]c(=O)n(CC(=O)O)c(=O)n3Cc3ccc(Cl)cc3)cc2)nc1` [Compound R-314] was 48 nM. In turn, `COC(=O)C[C@@H](C)n1c(=O)[nH]/c(=N\c2ccc(Oc3cccc(F)n3)cc2)n(Cc2ccc(Cl)cc2)c1=O` [Compound I-158] came in with an IC50 of 6 nM.

Take `COC(=O)C(C)(C)Cn1c(=O)[nH]/c(=N\c2ccc(Oc3cccc(F)n3)cc2)n(Cc2ccc(Cl)cc2)c1=O` [Compound I-008]: the IC50 was determined as 7 nM. The value for `COC(=O)C(C)(C)Cn1c(=O)[nH]/c(=N\c2ccc(Oc3cncc(OC)c3)cc2)n(Cc2ccc(Cl)cc2)c1=O` [Compound R-200] was 8 nM; that for `CC1(C)OCC(Cn2c(=O)[nH]/c(=N\c3ccc(Oc4ccccn4)cc3)n(Cc3ccc(Cl)cc3)c2=O)CO1` [Compound R-245] was 4 nM.

As to `COC(=O)C(C)(C)Cn1c(=O)[nH]/c(=N\c2ccc(Oc3ccccn3)cc2)n(Cc2ccc(Cl)cc2)c1=O` [Compound I-149], the IC50 turned out to be 5 nM.

Compound `C[C@@H](Cn1c(=O)[nH]/c(=N\c2ccc(Oc3ccc(Cl)nn3)cc2)n(Cc2ccc(Cl)cc2)c1=O)C(=O)O` [Compound R-197] had an IC50 of 7 nM. `COC(=O)[C@@H](C)[C@@H](C)n1c(=O)[nH]/c(=N\c2ccc(Oc3ccccn3)cc2)n(Cc2ccc(Cl)cc2)c1=O` [Compound I-151] returned an IC50 of 10 nM. The result for `Cc1ccc(Cn2c(=O)n(C[C@H](C)C(=O)O)c(=O)[nH]/c2=N\c2ccc(Oc3ccccn3)c(C)c2)cc1` [Compound I-213] reads 12 nM; that for `Cn1c(=O)[nH]/c(=N\c2ccc(Oc3cccc(C(=O)Nc4ccc(C(=O)O)cc4)n3)cc2)n(C[C@H]2CC[C@H](C)CC2)c1=O` [Compound R-006], 4 nM; that for `Cc1ccc(Cn2c(=O)n([C@@H](C)[C@@H](C)C(=O)O)c(=O)[nH]/c2=N\c2ccc(Oc3ncccc3F)cc2)cc1` [Compound I-096], 8 nM.

One may read the IC50 as the concentration that gives 50% inhibition. A higher IC50 goes with lower potency.
